Measured values: patent US9877973B2, “Intraocular drug delivery device and associated methods” (University of Utah Research Foundation, priority 2008, dated 2018)
Like-named read-outs stand apart in the source and are kept apart here.

How the values were obtained:
[1] = AVASTIN-loaded intraocular device, ocular tissue concentration by ELISA; format: in vivo, New Zealand white rabbits; conditions: 1 week post implantation of AVASTIN-loaded intraocular device
Source text: Three intraocular devices were implanted into eyes of New Zealand white rabbits under general anesthesia after lens extraction (phacoemulsification technique). Two of the devices were loaded with AVASTIN® and one was loaded with the contrast agent Galbumin as a control. Proper intraocular device position was verified by MRI as well as clinical examination.
The rabbits were sacrificed and the eyes are removed and assayed after 1 week post implantation. AVASTIN® was detected by ELISA in the retina and vitreous at concentrations of 24-48 mcg/mL, and was not present in the control rabbit eye.

[2] = rabbit, in vivo
[3] = rabbit, in vivo; remark: listed apart in the source
Description: The selected BDI-1 implants (from in-vitro release studies, FIG. 7) were sterilized, implanted in the capsular bag of rabbit's eyes. Two implants with different composition and dose were tested in-vivo in NZW rabbits to establish pharmacokinetics. Two rabbits were sacrificed at 2, 6, 10, 15 days and various tissue samples (aqueous humor, vitreous humor, IOL, iris/ciliary body and retina/choroid) were collected and samples were analyzed by a validated LC/MS/MS method.
A total of 8 animals (16 eyes) received the implant containing 120 μg of DXM.

Row | Compound | concentration in the retina and vitreous by ELISA [1] [ng/mL] | direction of dexamethasone flow from the endocapsular space [2] | direction of dexamethasone flow from the endocapsular space [3]
1 | bevacizumab [AVASTIN®] | 24000 to 48000 | – | –
2 | C[C@@H]1C[C@H]2[C@@H]3CCC4=CC(=O)C=C[C@]4(C)[C@@]3(F)[C@@H](O)C[C@]2(C)[C@@]1(O)C(=O)CO [dexamethasone] | – | bidirectional from the endocapsular space into both the anterior and posterior chambers | bidirectional from the endocapsular space into both the anterior and posterior chambers
